Test results from patent US9676789B2, “Aminated derivative of homoharringtonine, preparation method therefor, and application thereof” (HANGZHOU BENSHENG PHARMACEUTICAL CO., LTD., priority 2011, dated 2017).
Values after ≈ are worked out from the molar mass of the structure shown.

How the values were obtained:
[1] = test system: MG63 (osteosarcoma); experiment: MTT solid tumor cell growth inhibition, 72 h; assay type: cell-based, human; conditions: Homo sapiens, MG 63, 72 h; for IC50: read-out: IC50; for IC90: read-out: IC90
Method: (§1) Human solid tumor cell lines: Hep-2 ([…]), A549 (human lung cancer), CaES-17 (esophageal cancer cell), PC-3 (prostate cancer), CNE (nasopharyngeal carcinoma cell), and SK-OV-3 (ovarian cancer cell), all of which are purchased from China Center For Type Culture Collection; RKO (human colon adenocarcinoma cell), MGC 803 (human gastric cancer cell), MG63 (osteosarcoma) and U87 MG (malignant glioma cell), all of which are purchased from Fuxiang Bio-tech Co. Ltd., Shanghai, China; PANC-1 (pancreatic cancer), Huh7 (human liver cancer cell), Becap37 (human breast cancer cell), and Hela (human cervical cancer cell), all of which are donated by Cancer Research Institute of Zhejiang University, China.
(§2) Obtaining 4000 well-growing human solid tumor cells and inoculating them into wells of a 96-well cell culture plate. The culture medium is DMEM High Glucose cell culture medium containing 10% fetal bovine serum. The plate is placed in a carbon dioxide cell incubator (5% CO2) at 37° C. and incubating for 24 hours. After adding the homoharringtonine derivatives of different concentration and mixing uniformly, the plate is placed in a carbon dioxide cell incubator (5% CO2) at 37° C. and incubating for 72 hours. Then the viable cell concentration is determined by the MTT method and the cell viability (%) after drug treatment is calculated. In this experiment, the cell viability of control group (not treated with any compound) is set as 100%.

[2] = test system: PANC-1 (pancreatic cancer); experiment: MTT solid tumor cell growth inhibition, 72 h; assay type: cell-based, human; conditions: Homo sapiens, PANC-1, 72 h; for IC50: read-out: IC50; for IC90: read-out: IC90
Method: as §1, §2

[3] = test system: RPMI8226 (multiple myeloma); experiment: MTT multiple myeloma cell growth inhibition, 72 h; assay type: cell-based, human; conditions: Homo sapiens, RPMI-8226, RPMI8226, 72 h; for IC50: read-out: IC50; for IC90: read-out: IC90
Method: Multiple myeloma and lymphoma cell lines: RPMI8226 (multiple myeloma), purchased from Fuxiang Bio-tech Co. Ltd., Shanghai, China.
(§3) Obtaining 6000 well-growing leukemia cells and inoculating them into wells of a 96-well cell culture plate. The culture medium is the 1640 cell culture medium containing 10% fetal bovine serum. After adding the homoharringtonine derivatives of different concentrations and mixing uniformly, placing the plate in a carbon dioxide cell incubator (5% CO2) at 37° C. and incubating for 72 hours. Then the viable cell concentration is determined by the MTT method.

[4] = test system: A549 (human lung cancer); experiment: MTT solid tumor cell growth inhibition, 72 h; assay type: cell-based; conditions: Homo sapiens, A549, 72 h; for IC50: read-out: IC50; for IC90: read-out: IC90
Method: as §1, §2

[5] = test system: RKO (human colon adenocarcinoma cell); experiment: MTT solid tumor cell growth inhibition, 72 h; assay type: cell-based; conditions: Homo sapiens; for IC50: read-out: IC50; for IC90: read-out: IC90
Method: as §1, §2

[6] = test system: Huh7 (human liver cancer cell); experiment: MTT solid tumor cell growth inhibition, 72 h; assay type: cell-based; conditions: Homo sapiens, Huh-7, Huh7, 72 h; for IC50: read-out: IC50; for IC90: read-out: IC90
Method: as §1, §2

[7] = test system: Becap37 (human breast cancer cell); experiment: MTT solid tumor cell growth inhibition, 72 h; assay type: cell-based; conditions: Homo sapiens, Becap37, 72 h; for IC50: read-out: IC50; for IC90: read-out: IC90
Method: as §1, §2

[8] = test system: MGC 803 (human gastric cancer cell); experiment: MTT solid tumor cell growth inhibition, 72 h; assay type: cell-based; conditions: Homo sapiens, MGC 803, 72 h; for IC50: read-out: IC50; for IC90: read-out: IC90
Method: as §1, §2

[9] = test system: K562/adr (drug-resistant, chronic myeloid leukemia, CML); experiment: MTT leukemia cell growth inhibition, 72 h; assay type: cell-based, human; conditions: Homo sapiens, K562/Adr; for IC50: read-out: IC50; for IC90: read-out: IC90
Text: (§4) Leukemia cell lines: K562/adr (drug-resistant, chronic myeloid leukemia, CML), NB4 (acute promyelocytic leukemia, AML), Kasumi-1 (acute myeloid leukemia M2 type, AML-M2), Jurkat (acute lymphoblastic leukemia, ALL), all of which are donated by Cancer Research Institute of Zhejiang University, China; and H9 (acute lymphoblastic leukemia, ALL), which is purchased from China Center for Type Culture Collection.
as §3, with “method. In this experiment, the cell viability in control group (not treated with any compound) is set as 100%.” for “method.”

[10] = test system: Jurkat (acute lymphoblastic leukemia, ALL); experiment: MTT leukemia cell growth inhibition, 72 h; assay type: cell-based, human; conditions: Homo sapiens; for IC50: read-out: IC50; for IC90: read-out: IC90
Text: as §4
as §3, with “method. In this experiment, the cell viability in control group (not treated with any compound) is set as 100%.” for “method.”

[11] = test system: H9 (acute lymphoblastic leukemia, ALL); experiment: MTT leukemia cell growth inhibition, 72 h; assay type: cell-based, human; conditions: Homo sapiens, H9, 72 h; for IC50: read-out: IC50; for IC90: read-out: IC90
Text: as §4
as §3, with “method. In this experiment, the cell viability in control group (not treated with any compound) is set as 100%.” for “method.”

[12] = test system: Kasumi-1 (acute myeloid leukemia M2 type, AML-M2); experiment: MTT leukemia cell growth inhibition, 72 h; assay type: cell-based, human; conditions: Homo sapiens, Kasumi-1, 72 h; for IC50: read-out: IC50; for IC90: read-out: IC90
Text: as §4
as §3, with “method. In this experiment, the cell viability in control group (not treated with any compound) is set as 100%.” for “method.”

[13] = test system: NB4 (acute promyelocytic leukemia, AML); experiment: MTT leukemia cell growth inhibition, 72 h; assay type: cell-based, human; conditions: Homo sapiens, NB4, 72 h; for IC50: read-out: IC50; for IC90: read-out: IC90
Text: as §4
as §3, with “method. In this experiment, the cell viability in control group (not treated with any compound) is set as 100%.” for “method.”

Compound | IC50 [1] | IC90 [1] | IC50 [2] | IC90 [2] | IC50 [3] | IC90 [3] | IC50 [4] | IC90 [4] | IC50 [5] | IC90 [5] | IC50 [6] | IC90 [6] | IC50 [7] | IC90 [7] | IC50 [9] | IC90 [9] | IC50 [10] | IC90 [10] | IC50 [11] | IC90 [11] | also measured
COC1=C[C@]23CCCN2CCc2cc4c(cc2[C@@H]3[C@@H]1OC(=O)[C@@](O)(CCCC(C)(C)O)CC(=O)N1CC=CC1)OCO4 [BS-HH-018] | 0.96 µg/mL (≈ 1.65 µM) | > 16 µg/mL | 2.89 µg/mL (≈ 4.96 µM) | > 16 µg/mL | 0.6 µg/mL (≈ 1.03 µM) | 5.66 µg/mL (≈ 9.71 µM) | 4.09 µg/mL (≈ 7.02 µM) | > 16 µg/mL | 0.34 µg/mL (≈ 0.583 µM) | 1.5 µg/mL (≈ 2.57 µM) | 2.5 µg/mL (≈ 4.29 µM) | > 16 µg/mL | 1.7 µg/mL (≈ 2.92 µM) | > 16 µg/mL | 7.77 µg/mL (≈ 13.3 µM) | > 16 µg/mL | 0.88 µg/mL (≈ 1.51 µM) | 16 µg/mL (≈ 27.5 µM) | 2.69 µg/mL (≈ 4.62 µM) | > 16 µg/mL | IC50 [8]: 0.94 µg/mL (≈ 1.61 µM); IC90 [8]: 4.96 µg/mL (≈ 8.51 µM); IC50 [12]: 0.47 µg/mL (≈ 0.807 µM); IC90 [12]: 2.32 µg/mL (≈ 3.98 µM); IC50 [13]: 0.38 µg/mL (≈ 0.652 µM); IC90 [13]: 1 µg/mL (≈ 1.72 µM)
COC1=C[C@]23CCCN2CCc2cc4c(cc2[C@@H]3[C@@H]1OC(=O)[C@@](O)(CCCC(C)(C)O)CC(=O)N1CCN(C)CC1)OCO4 [BS-HH-009] | 1.72 µg/mL (≈ 2.8 µM) | > 16 µg/mL | 16 µg/mL (≈ 26.1 µM) | > 16 µg/mL | 3.6 µg/mL (≈ 5.87 µM) | 16 µg/mL (≈ 26.1 µM) | 10.2 µg/mL (≈ 16.7 µM) | > 16 µg/mL | 1.46 µg/mL (≈ 2.38 µM) | 5.72 µg/mL (≈ 9.32 µM) | 6.7 µg/mL (≈ 10.9 µM) | > 16 µg/mL | 3.09 µg/mL (≈ 5.03 µM) | > 16 µg/mL | > 16 µg/mL | > 16 µg/mL | 3 µg/mL (≈ 4.89 µM) | > 16 µg/mL | 8 µg/mL (≈ 13 µM) | > 16 µg/mL | IC50 [12]: 8.54 µg/mL (≈ 13.9 µM); IC90 [12]: > 16 µg/mL; IC50 [13]: 2.97 µg/mL (≈ 4.84 µM); IC90 [13]: 11.2 µg/mL (≈ 18.2 µM)
COC1=C[C@]23CCCN2CCc2cc4c(cc2[C@@H]3[C@@H]1OC(=O)[C@@](O)(CCCC(C)(C)O)CC(=O)N1CCC(O)CC1)OCO4 [BS-HH-021] | > 16 µg/mL | > 16 µg/mL | > 16 µg/mL | > 16 µg/mL | 16 µg/mL (≈ 26 µM) | > 16 µg/mL | > 16 µg/mL | > 16 µg/mL | 8.51 µg/mL (≈ 13.8 µM) | > 16 µg/mL | > 16 µg/mL | > 16 µg/mL | > 16 µg/mL | > 16 µg/mL | > 16 µg/mL | > 16 µg/mL | 13.4 µg/mL (≈ 21.8 µM) | > 16 µg/mL | > 16 µg/mL | > 16 µg/mL | IC50 [8]: > 16 µg/mL; IC90 [8]: > 16 µg/mL; IC50 [12]: 14.6 µg/mL (≈ 23.7 µM); IC90 [12]: > 16 µg/mL; IC50 [13]: 8 µg/mL (≈ 13 µM); IC90 [13]: 16 µg/mL (≈ 26 µM)
COC1=C[C@]23CCCN2CCc2cc4c(cc2[C@@H]3[C@@H]1OC(=O)[C@@](O)(CCCC(C)(C)O)CC(=O)N1CCCC(O)C1)OCO4 (stereo partly drawn) [BS-HH-025] | > 16 µg/mL | > 16 µg/mL | > 16 µg/mL | > 16 µg/mL | > 16 µg/mL | > 16 µg/mL | > 16 µg/mL | > 16 µg/mL | 15.3 µg/mL (≈ 25 µM) | > 16 µg/mL | > 16 µg/mL | > 16 µg/mL | > 16 µg/mL | > 16 µg/mL | > 16 µg/mL | > 16 µg/mL | > 16 µg/mL | > 16 µg/mL | > 16 µg/mL | > 16 µg/mL | IC50 [8]: > 16 µg/mL; IC90 [8]: > 16 µg/mL; IC50 [12]: > 16 µg/mL; IC90 [12]: > 16 µg/mL; IC50 [13]: 8.31 µg/mL (≈ 13.5 µM); IC90 [13]: > 16 µg/mL
